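The compound was tested at five concentrations on cells cultured in 96-well plates, with a 48-hour exposure period. The concentration for 50% growth inhibition is given as GI50. TGI marks complete inhibition of growth.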
How the values were obtained:
Test in all cases: NCI tumour cell line growth inhibition, 48 h
IGROV1 ovarian = test system: IGROV1 ovarian
CCRF-CEM leukemia = test system: CCRF-CEM leukemia
TK-10 renal = test system: TK-10 renal
T-47D breast = test system: T-47D breast
OVCAR-8 ovarian = test system: OVCAR-8 ovarian
LOX IMVI melanoma = test system: LOX IMVI melanoma
A549 NSCLC = test system: A549 NSCLC
HCC-2998 colon = test system: HCC-2998 colon
SK-MEL-2 melanoma = test system: SK-MEL-2 melanoma
UO-31 renal = test system: UO-31 renal
KM12 colon = test system: KM12 colon
HOP-92 NSCLC = test system: HOP-92 NSCLC
NCI-H23 lung = test system: NCI-H23 lung
SK-OV-3 ovarian = test system: SK-OV-3 ovarian
EKVX NSCLC = test system: EKVX NSCLC
U251 CNS = test system: U251 CNS
HCT-15 colon = test system: HCT-15 colon
NCI/ADR-RES ovarian = test system: NCI/ADR-RES ovarian
UACC-257 melanoma = test system: UACC-257 melanoma
HT29 colon = test system: HT29 colon
SR leukemia = test system: SR leukemia
NCI-H226 lung = test system: NCI-H226 lung
ACHN renal = test system: ACHN renal
M14 melanoma = test system: M14 melanoma
UACC-62 melanoma = test system: UACC-62 melanoma
HL-60(TB) leukemia = test system: HL-60(TB) leukemia
SF-268 CNS = test system: SF-268 CNS
OVCAR-3 ovarian = test system: OVCAR-3 ovarian
PC-3 prostate = test system: PC-3 prostate
RXF 393 renal = test system: RXF 393 renal
MOLT-4 leukemia = test system: MOLT-4 leukemia
NCI-H460 lung = test system: NCI-H460 lung
MDA-MB-435 = test system: MDA-MB-435
HS 578T breast = test system: HS 578T breast
NCI-H522 lung = test system: NCI-H522 lung
OVCAR-4 ovarian = test system: OVCAR-4 ovarian
SK-MEL-5 melanoma = test system: SK-MEL-5 melanoma
HCT-116 colon = test system: HCT-116 colon
OVCAR-5 ovarian = test system: OVCAR-5 ovarian
MALME-3M melanoma = test system: MALME-3M melanoma
MDA-MB-231 breast = test system: MDA-MB-231 breast
786-0 renal = test system: 786-0 renal
SNB-19 CNS = test system: SNB-19 CNS
SN12C renal = test system: SN12C renal
SF-295 CNS = test system: SF-295 CNS
BT-549 breast = test system: BT-549 breast
SK-MEL-28 melanoma = test system: SK-MEL-28 melanoma
SNB-75 CNS = test system: SNB-75 CNS
HOP-62 NSCLC = test system: HOP-62 NSCLC
A498 renal = test system: A498 renal
MCF7 breast = test system: MCF7 breast
SF-539 CNS = test system: SF-539 CNS
DU-145 prostate = test system: DU-145 prostate
SW-620 colon = test system: SW-620 colon

SMILES: CN1CC=C(c2cc(NC(=O)Nc3ccc(Oc4ccnc(NC(=O)C5CC5)c4)c(F)c3)cc(C(F)(F)F)c2)CC1
- GI50 (IGROV1 ovarian): 244 nM
- TGI (IGROV1 ovarian): 1340 nM
- GI50 (CCRF-CEM leukemia): 126 nM
- TGI (CCRF-CEM leukemia): 702 nM
- GI50 (TK-10 renal): 1620 nM
- TGI (TK-10 renal): 3.91 µM
- GI50 (T-47D breast): 1370 nM
- TGI (T-47D breast): 3.99 µM
- GI50 (OVCAR-8 ovarian): 238 nM
- TGI (OVCAR-8 ovarian): 5.12 µM
- GI50 (LOX IMVI melanoma): 181 nM
- TGI (LOX IMVI melanoma): 645 nM
- GI50 (A549 NSCLC): 247 nM
- TGI (A549 NSCLC): 1800 nM
- GI50 (HCC-2998 colon): 281 nM
- TGI (HCC-2998 colon): 1970 nM
- GI50 (SK-MEL-2 melanoma): 1130 nM
- TGI (SK-MEL-2 melanoma): 2260 nM
- GI50 (UO-31 renal): 1580 nM
- TGI (UO-31 renal): 3.57 µM
- GI50 (KM12 colon): 33.2 nM
- TGI (KM12 colon): 680 nM
- GI50 (HOP-92 NSCLC): 1550 nM
- TGI (HOP-92 NSCLC): 3.58 µM
- GI50 (NCI-H23 lung): 172 nM
- TGI (NCI-H23 lung): 712 nM
- GI50 (SK-OV-3 ovarian): 2740 nM
- TGI (SK-OV-3 ovarian): 7.25 µM
- GI50 (EKVX NSCLC): 359 nM
- TGI (EKVX NSCLC): 1910 nM
- GI50 (U251 CNS): 208 nM
- TGI (U251 CNS): 824 nM
- GI50 (HCT-15 colon): 1080 nM
- TGI (HCT-15 colon): 4.33 µM
- GI50 (NCI/ADR-RES ovarian): 2710 nM
- TGI (NCI/ADR-RES ovarian): 13.4 µM
- GI50 (UACC-257 melanoma): 1340 nM
- TGI (UACC-257 melanoma): 3.24 µM
- GI50 (HT29 colon): 166 nM
- TGI (HT29 colon): 678 nM
- GI50 (SR leukemia): 152 nM
- TGI (SR leukemia): 863 nM
- GI50 (NCI-H226 lung): 1350 nM
- TGI (NCI-H226 lung): 4.03 µM
- GI50 (ACHN renal): 968 nM
- TGI (ACHN renal): 2670 nM
- GI50 (M14 melanoma): 524 nM
- TGI (M14 melanoma): 1480 nM
- GI50 (UACC-62 melanoma): 1100 nM
- TGI (UACC-62 melanoma): 2250 nM
- GI50 (HL-60(TB) leukemia): 183 nM
- TGI (HL-60(TB) leukemia): 704 nM
- GI50 (SF-268 CNS): 206 nM
- TGI (SF-268 CNS): 1410 nM
- GI50 (OVCAR-3 ovarian): 234 nM
- TGI (OVCAR-3 ovarian): 4.93 µM
- GI50 (PC-3 prostate): 242 nM
- TGI (PC-3 prostate): 1250 nM
- GI50 (RXF 393 renal): 172 nM
- TGI (RXF 393 renal): 411 nM
- GI50 (MOLT-4 leukemia): 202 nM
- TGI (MOLT-4 leukemia): 943 nM
- GI50 (NCI-H460 lung): 194 nM
- TGI (NCI-H460 lung): 660 nM
- GI50 (MDA-MB-435): 429 nM
- TGI (MDA-MB-435): 1170 nM
- GI50 (HS 578T breast): 982 nM
- TGI (HS 578T breast): 3.09 µM
- GI50 (NCI-H522 lung): 828 nM
- TGI (NCI-H522 lung): 1840 nM
- GI50 (OVCAR-4 ovarian): 260 nM
- TGI (OVCAR-4 ovarian): 2350 nM
- GI50 (SK-MEL-5 melanoma): 853 nM
- TGI (SK-MEL-5 melanoma): 1590 nM
- GI50 (HCT-116 colon): 167 nM
- TGI (HCT-116 colon): 1680 nM
- GI50 (OVCAR-5 ovarian): 289 nM
- TGI (OVCAR-5 ovarian): 2440 nM
- GI50 (MALME-3M melanoma): 289 nM
- TGI (MALME-3M melanoma): 1130 nM
- GI50 (MDA-MB-231 breast): 176 nM
- TGI (MDA-MB-231 breast): 806 nM
- GI50 (786-0 renal): 232 nM
- TGI (786-0 renal): 908 nM
- GI50 (SNB-19 CNS): 227 nM
- TGI (SNB-19 CNS): 1480 nM
- GI50 (SN12C renal): 159 nM
- TGI (SN12C renal): 1270 nM
- GI50 (SF-295 CNS): 933 nM
- TGI (SF-295 CNS): 2940 nM
- GI50 (BT-549 breast): 1600 nM
- TGI (BT-549 breast): 3.87 µM
- GI50 (SK-MEL-28 melanoma): 1230 nM
- TGI (SK-MEL-28 melanoma): 3.07 µM
- GI50 (SNB-75 CNS): 1530 nM
- TGI (SNB-75 CNS): 2950 nM
- GI50 (HOP-62 NSCLC): 194 nM
- TGI (HOP-62 NSCLC): 1120 nM
- GI50 (A498 renal): 2050 nM
- TGI (A498 renal): 3.9 µM
- GI50 (MCF7 breast): 153 nM
- TGI (MCF7 breast): 693 nM
- GI50 (SF-539 CNS): 888 nM
- TGI (SF-539 CNS): 1860 nM
- GI50 (DU-145 prostate): 212 nM
- TGI (DU-145 prostate): 1620 nM
- GI50 (SW-620 colon): 196 nM
- TGI (SW-620 colon): 556 nM

Reference: PubChem BioAssay (NCI)
